The source made the active and inactive calls. The calls are words filed in the database; no cut-off is given here.
Experiments:
[1] = tested on: MCF7; assay: Antitumor activity against human MCF7 cells xenografted in nude mouse assessed as tumor growth inhibition at 30 mg/kg,po for 30 days daily; assay type: functional, organism-based; conditions: time 30.0 day
[2] = Toxicity in Sprague-Dawley rat uterus assessed as change in uterine wet weight at 30 mg/kg, po for 2 days consecutively; assay type: organism-based; conditions: in vivo, 48 h, time 2 day
[3] = tested on: MCF7; assay: Induction of cell cycle arrest in human MCF7 cells assessed as accumulation at G0/G1 phase at 10 uM incubated for 24 hrs by flow cytometry (Rvb= 46.53 +/- 0.44%); assay type: functional
[4] = tested on: Ishikawa; assay: Antiproliferative activity against human Ishikawa cells assessed as cell growth inhibition at 20 uM incubated for 3 days by MTT assay; assay type: functional; conditions: for inhibition at 20 µM: 72 h, time 3 day; for inhibition: time 3.0 day
[5] = tested on: MCF7; assay: Antiproliferative activity against human MCF7 cells assessed as cell growth inhibition incubated for 5 days by MTT assay; assay type: functional, cell-based; conditions: MCF7, 120 h
[6] = tested on: MCF7; assay: Stabilization of ER in human MCF7 cells at 10 uM incubated for 24 hrs by Western blot analysis; assay type: cell-based
[7] = tested on: MCF7; assay: Antitumor activity against human MCF7 cells xenografted in nude mouse assessed as tumor growth inhibition at 10 mg/kg,po for 30 days; assay type: functional, organism-based; conditions: time 30.0 day
[8] = tested on: MCF7; assay: Induction of ER degradation in human MCF7 cells at 10 uM incubated for 24 hrs by Western blot analysis; assay type: cell-based
[9] = tested on: MCF7; assay: Antiproliferative activity against human MCF7 cells assessed as reduction in cell viability; assay type: functional, cell-based
[10] = Plasma concentration in ICR mouse at 100 mg/kg, po and measured after 0.25 hrs by LC-MS analysis; assay type: ADME, organism-based
[11] = Plasma concentration in ICR mouse at 100 mg/kg, po and measured after 0.5 hrs by LC-MS analysis; assay type: ADME, organism-based
[12] = Plasma concentration in ICR mouse at 100 mg/kg, po and measured after 1 hrs by LC-MS analysis; assay type: ADME, organism-based
[13] = tested on: MCF7; assay: Induction of ER degradation in human MCF7 cells at 0.001 to 10 uM incubated for 24 hrs by Western blot analysis; assay type: cell-based; conditions: dose 0.001-10 µM
[14] = Half life in ICR mouse at 3 mg/kg, iv and measured upto 24 hrs by LC-MS analysis; assay type: ADME, organism-based; conditions: in vivo
[15] = Toxicity in mouse xenografted with human MCF7 cells assessed as morphological changes in heart at 30 mg/kg,po for 30 days daily by Hematoxylin and eosin staining based microscopy; assay type: organism-based; conditions: in vivo, 720 h, time 30 day
[16] = Clearance in ICR mouse at 3 mg/kg, iv and measured upto 24 hrs by LC-MS analysis; assay type: ADME, organism-based; conditions: in vivo
[17] = tested on: MCF7; assay: Antitumor activity against human MCF7 cells xenografted in nude mouse assessed as reduction in Ki67 expression at 30 mg/kg,po for 30 days daily by immunohistochemical analysis; assay type: functional, organism-based; conditions: time 30.0 day
[18] = Toxicity in mouse xenografted with human MCF7 cells assessed as morphological changes in liver at 30 mg/kg,po for 30 days daily by Hematoxylin and eosin staining based microscopy; assay type: organism-based; conditions: in vivo, 720 h, time 30 day
[19] = MRT(t) in ICR mouse at 30 mg/kg, po and measured upto 24 hrs by LC-MS analysis; assay type: ADME, organism-based; conditions: in vivo
[20] = Cmax in ICR mouse at 3 mg/kg, iv and measured upto 24 hrs by LC-MS analysis; assay type: ADME, organism-based; set-up: dose 3 mg/kg, time < 24 hrs, route iv; conditions: in vivo
[21] = tested on: Mus musculus; assay: In vivo ER degradation in mouse xenografted with human MCF7 cells assessed as reduction in ER expression level in tumor at 30 mg/kg,po for 30 days daily by […]; assay type: functional, organism-based; conditions: time 30.0 day
[22] = tested on: MCF7; assay: Induction of ER degradation in human MCF7 cells transfected with ERE-luciferase plasmid assessed as decrease in estradiol induced ERE-luciferase activity by measuring luminescence at 10 uM incubated for 24 hrs by luciferase assay; assay type: cell-based
[23] = Apparent volume of distribution in ICR mouse at 3 mg/kg, iv and measured upto 24 hrs by LC-MS analysis; assay type: ADME, organism-based; conditions: in vivo, read-out: Vz
[24] = AUC (0 to infinity) in ICR mouse at 3 mg/kg, iv and measured upto 24 hrs by LC-MS analysis; assay type: ADME, organism-based; set-up: time < 24 hrs, dose 3 mg/kg, route iv; conditions: in vivo
[25] = tested on: MCF7; assay: Induction of ER degradation in human MCF7 cells at 10 uM incubated for 24 hrs by DAPI staining based immunofluorescence analysis; assay type: cell-based
[26] = Half life in ICR mouse at 30 mg/kg, po and measured upto 24 hrs by LC-MS analysis; assay type: ADME, organism-based; conditions: in vivo
[27] = Oral bioavailability in ICR mouse at 30 mg/kg and measured upto 24 hrs by LC-MS analysis; assay type: ADME, organism-based; conditions: in vivo
[28] = Tmax in ICR mouse at 30 mg/kg, po and measured upto 24 hrs by LC-MS analysis; assay type: ADME, organism-based; conditions: in vivo
[29] = MRT (0 to infinity) in ICR mouse at 3 mg/kg, iv and measured upto 24 hrs by LC-MS analysis; assay type: ADME, organism-based; conditions: in vivo
[30] = Tmax in ICR mouse at 3 mg/kg, iv and measured upto 24 hrs by LC-MS analysis; assay type: ADME, organism-based; conditions: in vivo
[31] = AUCt in ICR mouse at 3 mg/kg, iv and measured upto 24 hrs by LC-MS analysis; assay type: ADME, organism-based; set-up: dose 3 mg/kg, time < 24 hrs, route iv; conditions: in vivo
[32] = MRT (0 to infinity) in ICR mouse at 30 mg/kg, po and measured upto 24 hrs by LC-MS analysis; assay type: ADME, organism-based; conditions: in vivo
[33] = tested on: MCF7; assay: Induction of ER degradation in Estradiol stimulated human MCF7 cells assessed as decrease in GREB1 mRNA expression level at 1 to 10 uM incubated for 24 hrs by RT-qPCR analysis; assay type: cell-based; conditions: dose 1-10 µM
[34] = Toxicity in mouse xenografted with human MCF7 cells assessed as morphological changes in spleen at 30 mg/kg,po for 30 days daily by Hematoxylin and eosin staining based microscopy; assay type: organism-based; conditions: in vivo, 720 h, time 30 day
[35] = AUC (0 to infinity) in ICR mouse at 30 mg/kg, po and measured upto 24 hrs by LC-MS analysis; assay type: ADME, organism-based; set-up: time < 24 hrs, dose 30 mg/kg, route po; conditions: in vivo
[36] = tested on: MCF7; assay: Induction of ER degradation in Estradiol stimulated human MCF7 cells assessed as decrease in TFF1 gene expression level at 1 to 10 uM incubated for 24 hrs by RT-qPCR analysis; assay type: cell-based; conditions: dose 1-10 µM
[37] = Toxicity in mouse xenografted with human MCF7 cells assessed as morphological changes in kidney at 30 mg/kg,po for 30 days daily by Hematoxylin and eosin staining based microscopy; assay type: organism-based; conditions: in vivo, 720 h, time 30 day
[38] = tested on: MCF7; assay: Induction of ER degradation in Estradiol stimulated human MCF7 cells assessed as decrease in PGR gene expression level at 1 to 10 uM incubated for 24 hrs by RT-qPCR analysis; assay type: cell-based; conditions: dose 1-10 µM
[39] = C0 in ICR mouse at 3 mg/kg, iv and measured upto 24 hrs by LC-MS analysis; assay type: ADME, organism-based; conditions: in vivo
[40] = AUCt in ICR mouse at 30 mg/kg, po and measured upto 24 hrs by LC-MS analysis; assay type: ADME, organism-based; set-up: time < 24 hrs, dose 30 mg/kg, route po; conditions: in vivo
[41] = Toxicity in mouse xenografted with human MCF7 cells assessed as body weight loss at 30 mg/kg,po for 30 days daily; assay type: organism-based; conditions: in vivo, 720 h, time 30 day
[42] = MRT(t) in ICR mouse at 3 mg/kg, iv and measured upto 24 hrs by LC-MS analysis; assay type: ADME, organism-based; conditions: in vivo
[43] = tested on: Mus musculus; assay: In vivo ER degradation in mouse xenografted with human MCF7 cells assessed as reduction in PR expression level in tumor at 30 mg/kg,po for 30 days daily by […]; assay type: functional, organism-based; conditions: time 30.0 day
[44] = Cmax in ICR mouse at 30 mg/kg, po and measured upto 24 hrs by LC-MS analysis; assay type: ADME, organism-based; set-up: time < 24 hrs, dose 30 mg/kg, route po; conditions: in vivo

## CC/C(=C(\c1ccccc1)c1ccc(OCCN(C)C)cc1)c1ccccc1 [TAMOXIFEN]
[1]
  Activity: Active
[2]
  Activity: Toxic
[3]
  Activity: 67.34%
[4]
  inhibition at 20 µM: 50%
[5]
  IC50: 2.33 µM
[6]
  Activity: Active

## C[C@]12CC[C@@H]3c4ccc(O)cc4C[C@@H](CCCCCCCCC[S+]([O-])CCCC(F)(F)C(F)(F)F)[C@H]3[C@@H]1CC[C@@H]2O (some centres not stated) [FULVESTRANT]
[3]
  Activity: 62.28%
[7]
  Activity: Active
[4]
  inhibition: inactive
[5]
  IC50: 0.0001 µM

## CCc1ccccc1C(=O)c1sc2cc(F)ccc2c1Oc1ccc(/C=C/C(=O)O)cc1
[8]
  Activity: Active
[4]
  inhibition at 20 µM: 12%
[5]
  IC50: 0.37 µM

## CCNCCc1ccc(CN(CC)c2cc(OC)ccc2[C@@H]2CCc3cc(O)ccc3C2)cc1 [ELACESTRANT]
[9]
  IC50: 4.2 µM

## Cc1cc(Cl)cc(C)c1C(=O)c1sc2cc(F)ccc2c1Oc1ccc(/C=C/C(=O)O)cc1
[8]
  Activity: Active
[4]
  inhibition at 20 µM: 6%
[5]
  IC50: 0.56 µM

## Cc1cc(/C=C/C(=O)O)ccc1Oc1c(C(=O)c2ccccc2)sc2cc(F)ccc12
[8]
  Activity: Active
[4]
  inhibition at 20 µM: 6%
[5]
  IC50: 3.79 µM

## COc1ccc(C(=O)c2sc3cc(F)ccc3c2Oc2ccc(/C=C/C(=O)O)cc2)cc1
[8]
  Activity: Active
[4]
  inhibition at 20 µM: 53%
[5]
  IC50: 0.34 µM

## O=C(O)/C=C/c1ccc(Oc2c(C(=O)c3cccc4sccc34)sc3cc(F)ccc23)cc1
[8]
  Activity: Active
[4]
  inhibition at 20 µM: 12%
[5]
  IC50: 4.28 µM

## O=C(O)/C=C/c1ccc(Oc2c(C(=O)c3ccccc3)sc3cc(F)ccc23)cc1
[10]
  concentration at 0.25 h: 9860 ng/mL
[8]
  Activity: Active
[11]
  concentration at 0.5 h: 16000 ng/mL
[4]
  inhibition at 20 µM: 8%
[12]
  concentration at 1 h: 15600 ng/mL
[5]
  IC50: 2.12 µM

## Cc1cc(F)ccc1C(=O)c1sc2cc(F)ccc2c1Oc1ccc(/C=C/C(=O)O)cc1
[8]
  Activity: Active
[4]
  inhibition at 20 µM: 11%
[5]
  IC50: 0.36 µM

## Cc1cc(F)cc(C)c1C(=O)c1sc2cc(F)ccc2c1Oc1ccc(/C=C/C(=O)O)cc1
[13]
  Activity: Dose-Dependent Effect
[14]
  half-life: 1.23 h
[1]
  Activity: Active
[15]
  Activity: Non-Toxic
[16]
  clearance: 11 mL/min/kg
[17]
  Activity: Active
[18]
  Activity: Non-Toxic
[19]
  MRT last at 24 h: 4.39 h
[2]
  Activity: Non-Toxic
[20]
  Cmax: 4500 ng/mL
[21]
  Activity: Active
[22]
  Activity: Active
[23]
  Vd: 1.13 L/kg
[24]
  AUC(0-inf): 4640 ng·h/mL
[25]
  Activity: Active
[26]
  half-life: 3.13 h
[27]
  bioavailability: 62.9%
[28]
  Tmax: 0.333 h
[3]
  Activity: 56.1%
[29]
  MRT inf: 1.04 h
[30]
  Tmax: 1.8 min
[31]
  AUC(0-t) at 24 h: 4610 ng·h/mL
[8]
  Activity: Active
[32]
  MRT inf: 6.06 h
[33]
  Activity: Active
[4]
  inhibition at 20 µM: 12%
[34]
  Activity: Non-Toxic
[35]
  AUC(0-inf): 29200 ng·h/mL
[36]
  Activity: Active
[5]
  IC50: 0.055 µM
[37]
  Activity: Non-Toxic
[38]
  Activity: Active
[39]
  C0 at 24 h: 4840 ng/mL
[40]
  AUC(0-t) at 24 h: 26600 ng·h/mL
[41]
  Activity: Non-Toxic
[42]
  MRT last at 24 h: 0.978 h
[43]
  Activity: Active
[44]
  Cmax: 5530 ng/mL

## Cc1cc(F)cc(C)c1C(=O)c1sc2cc(O)ccc2c1Oc1ccc(/C=C/C(=O)O)cc1 [RINTODESTRANT]
[11]
  concentration at 0.5 h: 4500 ng/mL

## O=C(O)/C=C/c1ccc(Oc2c(C(=O)c3ccccc3)sc3cc(F)ccc23)cc1F
[8]
  Activity: Active
[4]
  inhibition: inactive
[5]
  IC50: 1.53 µM
